Results on ten compounds are retold here after PMC9816206 (Archives of Toxicology, 2022).

Data set [1] relates to cell cycle regulation and DNA damage repair. The following applies: transcriptomics approach; ref Abdelfatah et al. [2022]; cited from earlier work.
The test system of data set [2] is HeLa H2B-GFP cells co-cultured with HepG2 cells. The data set is described as follows: Micronucleus assay in co-culture after pretreatment with inhibitors of metabolic enzymes and efflux transporters. The following applies: then Las 10 µM, Rid 100 µM, vs no pretreatment. On the procedure:
Since the analysis was limited to HeLa H2B-GFP cells in these experiments, cytochalasin B (at final concentration 3 µg/ml) exposure was 20 h.
Transmembrane transporters may enhance or decrease PA-mediated effects. […] The idea was that metabolites formed in hepatocytes may not reach HeLa H2B-GFP cells to the same extent. […] Then, the co-culture was exposed to PAs for 28 h, followed by 3 µg/ml cytochalasin B for 20 h.

In a further data set the target is T1, MRP2 efflux transporter (Homo sapiens, UniProt Q92887).
T1 construct: endogenous in cells; host or cells: HepG2
T1 sequence (Q92887 whole entry): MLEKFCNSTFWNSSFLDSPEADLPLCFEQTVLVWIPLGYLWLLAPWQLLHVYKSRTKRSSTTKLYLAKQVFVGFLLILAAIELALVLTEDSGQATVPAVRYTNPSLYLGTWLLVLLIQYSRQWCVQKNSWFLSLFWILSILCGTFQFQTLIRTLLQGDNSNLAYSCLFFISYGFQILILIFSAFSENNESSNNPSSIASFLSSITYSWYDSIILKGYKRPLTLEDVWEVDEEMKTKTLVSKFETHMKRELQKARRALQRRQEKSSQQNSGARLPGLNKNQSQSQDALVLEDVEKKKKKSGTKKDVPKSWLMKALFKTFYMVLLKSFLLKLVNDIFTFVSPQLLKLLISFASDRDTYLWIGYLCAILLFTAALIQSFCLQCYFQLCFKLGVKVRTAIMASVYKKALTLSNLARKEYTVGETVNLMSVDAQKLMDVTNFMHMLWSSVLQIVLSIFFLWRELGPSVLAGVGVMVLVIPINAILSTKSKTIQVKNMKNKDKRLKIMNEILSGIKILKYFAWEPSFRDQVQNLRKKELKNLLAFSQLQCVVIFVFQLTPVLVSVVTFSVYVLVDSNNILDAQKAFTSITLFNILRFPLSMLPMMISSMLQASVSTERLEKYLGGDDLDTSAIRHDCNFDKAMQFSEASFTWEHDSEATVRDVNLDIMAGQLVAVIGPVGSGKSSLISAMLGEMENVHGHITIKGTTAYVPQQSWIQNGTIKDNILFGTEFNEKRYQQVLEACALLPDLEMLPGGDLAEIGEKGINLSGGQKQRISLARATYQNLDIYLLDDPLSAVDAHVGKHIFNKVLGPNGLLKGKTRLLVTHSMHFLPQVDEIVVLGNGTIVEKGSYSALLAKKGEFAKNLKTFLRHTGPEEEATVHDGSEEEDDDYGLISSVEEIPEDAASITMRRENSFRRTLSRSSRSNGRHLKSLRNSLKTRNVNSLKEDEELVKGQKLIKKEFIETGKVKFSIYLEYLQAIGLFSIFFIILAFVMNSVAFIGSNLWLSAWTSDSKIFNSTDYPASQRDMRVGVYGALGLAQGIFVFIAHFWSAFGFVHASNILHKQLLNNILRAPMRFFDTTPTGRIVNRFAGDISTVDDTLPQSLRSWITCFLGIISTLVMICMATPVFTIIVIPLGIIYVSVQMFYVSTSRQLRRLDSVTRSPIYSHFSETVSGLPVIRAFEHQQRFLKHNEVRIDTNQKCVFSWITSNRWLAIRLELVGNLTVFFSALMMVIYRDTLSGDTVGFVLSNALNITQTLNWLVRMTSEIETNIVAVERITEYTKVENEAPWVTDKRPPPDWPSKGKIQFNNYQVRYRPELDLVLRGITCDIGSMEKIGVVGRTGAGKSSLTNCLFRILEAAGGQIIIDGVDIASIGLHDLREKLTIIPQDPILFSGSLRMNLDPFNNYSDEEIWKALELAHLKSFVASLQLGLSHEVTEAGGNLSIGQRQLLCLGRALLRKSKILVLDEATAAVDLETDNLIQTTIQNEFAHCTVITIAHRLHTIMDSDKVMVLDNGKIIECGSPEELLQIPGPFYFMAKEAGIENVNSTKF
The data set is described as follows: MRP2 efflux transporter activity, intracellular calcein fluorescence retention. Format: cell-based. Particulars: HepG2 cells; calcein substrate; benzbromarone 10 µM; data not shown.

The test system of the next data set is HSEC. The following applies: PAs metabolized by HepaRG human hepatocyte cells in Transwell co-culture; ref Lu et al. [2019]; cited from earlier work.
The subject of data set [3] is HeLa H2B-GFP cells co-cultured with HepG2 cells. Put plainly: Cytokinesis-block micronucleus (CBMN) assay, HeLa H2B-GFP cells scored in co-culture with HepG2. It is filed as cell-based, human. The following applies: lasiocarpine 10 µM, riddelliine 100 µM, europine 320 µM; 28 h; vs solvent control (DMSO); n = 3. Here is the method:
(§1) The study of genomic damage was performed in a six-well plate in which one well consisted of only HepG2 cells, one well of only HeLa H2B-GFP cells and further wells containing both cell types in co-culture. To achieve this, 190, 000 of HeLa H2B-GFP cells per 3ml, 150,000 of HepG2 cells per 3ml and 40,000 HeLa H2B-GFP plus 150,000 HepG2 for the co-culture per 3ml were seeded and incubated overnight. As culture medium, the HepG2 cell medium was used for all cells. […] At this point, slides were coded and for each test sample micronuclei were scored in 1000 binucleated HeLa H2B-GFP cells in the co-culture and HeLa H2B-GFP cells, and in 1000 binucleated HepG2 cells in the HepG2 cell culture, at 400-fold magnification with an Eclipse 55i fluorescence microscope using a fluorescein isothiocyanate (FITC) filter (Nikon GmbH, Japan). The numbers of mononucleated cells (MN), binucleated cells (BN), trinucleated cells (TriN), and tetranucleated cells (TetraN) in 1000 cells were also scored. The cytokinesis-block proliferation index (CBPI) was calculated from that as a criterion for determining the cytotoxic effect using the following formula: CBPI=1×MN+2×BN+3×TriN+4×TetraN/MN+BN+TriN+TetraN.

Data set [4] concerns HeLa H2B-GFP cells. The data set is described as follows: Cytokinesis-block micronucleus (CBMN) assay, HeLa H2B-GFP cells cultured alone. It is filed as cell-based, human. Particulars: lasiocarpine 10 µM, riddelliine 100 µM, europine 320 µM; 28 h; vs solvent control (DMSO); n = 3. Here is the method: as §1
Data set [5] deals with HepG2 cells. The data set is described as follows: Cytokinesis-block micronucleus (CBMN) assay, HepG2 cells cultured alone. Format: cell-based, human. Particulars: lasiocarpine 10 µM, riddelliine 100 µM, europine 320 µM; 28 h; vs solvent control (DMSO); n = 3. Here is the method: as §1
Data set [6] deals with HeLa H2B-GFP cells co-cultured with HepG2 cells. Put plainly: Analysis of mitotic figures, HeLa H2B-GFP cells of the co-culture. Format: cell-based, human. Particulars: for mitotic index in co-culture / arrest in metaphase of mitosis (detectable as elevated mitotic index): 28 h, Las 10 µM, Rid 100 µM, Ep 160 µM; for mitotic index in co-culture: vs DMSO solvent control; for arrest in metaphase of mitosis (detectable as elevated mitotic index): vincristine 10 ng/ml (positive control). On the procedure: (§2) The characterization of mitotic cells in fixed cell preparations was performed as described in Baudoin and Cimini [(2018]). […] Thereafter, cells were harvested and the microscopic slides prepared as described for micronucleus analysis. The mitotic index (MI; % cells in mitosis) was assessed by counting and adding up the number of cells in the mitotic stages prophase, metaphase, anaphase and telophase in 1000 cells.
(§3) Disturbed mitoses were defined as mitotic figures deviating from the typical appearance of mitoses and were assessed in 300 mitotic cells per slide. We classified the mitotic disturbances into the following categories (Figs. 2, 3):
(§4) Metaphase: no metaphase plate arrangement, non-congression of individual chromosomes to the metaphase plate, multipolar (tripolar and more than tripolar) arrangement of chromosomes and elongated chromosomes/chromatids.
(§5) Anaphase: bridges, lagging chromosome(s), combination of bridges and lagging chromosome, and multipolar (tripolar and more than tripolar) arrangement of chromosomes.
(§6) Telophase: same analysis as for anaphase cells.
(§7) If a cell harboured more than one type of disturbance, it was added to each category (e.g. multipolar, lagging chromosome(s) and bridges).

Data set [7] deals with HepG2 cells. Put plainly: Analysis of mitotic figures, HepG2 cells cultured alone. Format: cell-based, human. The following applies: 28 h; Las 10 µM, Rid 100 µM, Ep 160 µM; vs DMSO solvent control. Here is the method: as §2, §3, §4, §5, §6, §7
The subject of data set [8] is HeLa H2B-GFP cells. Put plainly: Analysis of mitotic figures, HeLa H2B-GFP cells cultured alone. It is filed as cell-based, human. The following applies: 28 h; Las 10 µM, Rid 100 µM, Ep 160 µM; vs DMSO solvent control. Here is the method: as §2, §3, §4, §5, §6, §7
The subject of data set [9] is DNA. More on the design: method as in Hadi et al. [2021]. Particulars: ref Hadi et al. [2021]; cited from earlier work.
In the next data set the test system is V79 hamster cells. The following applies: metabolically incompetent V79 cells with or without human CYP450-3A4; ref Ebmeyer et al. [(2019]); cited from earlier work.
Data set [10] deals with DNA. Further details: method as in Hincks et al. [1991]. Particulars: ref Hincks et al. [1991]; cited from earlier work.

In the case of `CC(C)[C@](O)(C(=O)OCC1=CCN2CC[C@@H](O)[C@@H]12)[C@@H](C)O` (stereo in doubt) [lycopsamine], in data set [1], the “interference with cell cycle regulation and DNA damage repair” value (shortened to “interference”) is “interfered with cell cycle regulation and DNA damage repair”.

As to `CCc1oc2ccccc2c1C(=O)c1cc(Br)c(O)c(Br)c1` [benzbromarone], the “lasiocarpine-, riddelliine- and europine-induced micronucleus formation in HeLa H2B-GFP cells after efflux transporter inhibitor pretreatment” value in data set [2] (verapamil 50 µM, benzbromarone 10 µM or both, 24 h pretreatment, Ep 160 µM for 28 h) was “significantly reduced”. Besides, the “activity of MRP2 efflux transporter (calcein fluorescence retention)” value at MRP2 efflux transporter is reported as “significantly reduced”.

For the compound `C=C/C1=C/[C@H](C)[C@](C)(OC(C)=O)C(=O)OC/C2=C/CN(C)CC[C@@H](OC1=O)C2=O` [clivorine], the “cytotoxicity in HSEC” value in the data set on HSEC was “concentration-dependent cytotoxicity”.

For `C/C=C(/C)C(=O)O[C@@H]1CCN2CC=C(COC(=O)[C@@](O)([C@H](C)O)C(C)(C)O)[C@H]12` [echimidine], the “interference” value in data set [1] was “interfered with cell cycle regulation and DNA damage repair”.

For the compound `COC(C)C(O)(C(=O)OCC1=CCN2CCC(O)C12)C(C)(C)O` (centres unmarked) [europine], the “micronucleus formation in HeLa H2B-GFP cells in the co-culture” value in data set [3] is listed as “induced micronucleus formation significantly”. Also, the “micronucleus formation in HeLa H2B-GFP cells cultured alone” value with HeLa H2B-GFP cells [4] was “not if cultured alone”. Also, in the data set on HepG2 cells [5], the “micronucleus induction in HepG2 cells cultured alone” value is listed as “induced micronuclei”. In data set [6], the “mitotic index in co-culture” value is on record as “significantly decreased” and the “arrest in metaphase of mitosis (detectable as elevated mitotic index)” value (“arrest … (detectable as elevated mitotic index)” below) is “not”. The ana-/telophase bridges entry in [6] (in 300 mitotic cells, Ep 160 µM compared with Las 10 µM and Rid 100 µM, concentrations causing a similar number of micronuclei) is given as “less ana-/telophase bridges than the two diesters”. Also, the “mitotic index in HepG2 cells” value in the data set with HepG2 cells [7] is recorded as “significantly decreased”. Also, the “mitotic index in HeLa H2B-GFP cells cultured alone” value with HeLa H2B-GFP cells [8] is “no change”. For the same compound, the “induction of DNA cross-links” value in the data set on DNA [9] is given as “did not”.

Turning to `CC(=O)N1CCN(c2ccc(OCC3COC(Cn4ccnc4)(c4ccc(Cl)cc4Cl)O3)cc2)CC1` (centres unmarked) [ketoconazole], the “lasiocarpine-, riddelliine- and europine-induced micronucleus formation after CYP450-3A4 inhibitor pretreatment” value in data set [2] (ketoconazole 1 µM 24 h pretreatment, Ep 320 µM for 28 h) is on record as “significantly reduced”.

Regarding `C/C=C(/C)C(=O)O[C@H]1CCN2CC=C(COC(=O)[C@@](O)([C@H](C)OC)C(C)(C)O)[C@H]12` [lasiocarpine], in data set [1], the “interference” value was “interfered with cell cycle regulation and DNA damage repair”. Also, the “genotoxicity in V79 hamster cells” value with V79 hamster cells was “only genotoxic in metabolically incompetent V79 hamster cells if they had been genetically engineered to harbour human CYP450-3A4”.

`C[C@H]1C(=O)O[C@@H]2CCN3CC=C(COC(=O)[C@](C)(O)[C@]1(C)O)[C@H]23` [monocrotaline]: in data set [1], the “interference” value is “interfered with cell cycle regulation and DNA damage repair”. The “cytotoxicity in HSEC” value with HSEC was “concentration-dependent cytotoxicity”.

As to `C=C1C/C(=C/C)C(=O)O[C@@H]2CCN3CC=C(COC(=O)[C@@]1(O)CO)[C@H]23` [riddelliine], the “micronucleus formation in HeLa H2B-GFP cells in the co-culture” value in [3] is on record as “induced micronucleus formation significantly”. The “micronucleus formation in HeLa H2B-GFP cells cultured alone” value in the data set on HeLa H2B-GFP cells [4] is on record as “not if cultured alone”. For the same compound, the “micronucleus induction in HepG2 cells cultured alone” value in the data set on HepG2 cells [5] is “induced micronuclei”. In data set [6], the “mitotic index in co-culture” value was “did not cause significant alterations” and the “arrest … (detectable as elevated mitotic index)” value is listed as “not”. Also, the “mitotic index in HepG2 cells” value with HepG2 cells [7] is on record as “did not cause significant alterations”. Also, in the data set with HeLa H2B-GFP cells [8], the “mitotic index in HeLa H2B-GFP cells cultured alone” value is “did not cause significant alterations”. The DNA cross-linker potency result in the data set on DNA [10] is “more potent DNA cross-linker than heliosupine”. Besides, the “interference” value in [1] is “interfered with cell cycle regulation and DNA damage repair”.

With `CC[C@]1(O)C[C@H]2CN(CCc3c([nH]c4ccccc34)[C@@](C(=O)OC)(c3cc4c(cc3OC)N(C=O)[C@H]3[C@@](O)(C(=O)OC)[C@H](OC(C)=O)[C@]5(CC)C=CCN6CC[C@]43[C@@H]65)C2)C1` [vincristine, reference compound], in data set [6], the “arrest … (detectable as elevated mitotic index)” value was “arrest in metaphase of mitosis”.
